Experimental data from patent publication EP4741392A1, “1H-PYRAZOLO[4,3-C]PYRIDINE COMPOUND, AND COMPOSITION THEREOF AND USE THEREOF” (Shenzhen TargetRx Co., Ltd., priority 2023, dated 2025).
Read-outs that look alike come from different tables or passages of the source.

Columns and labels:
Type in all cases: cell-based
Ramos cells with BTK WT = assay: Phosphor-BTK(Y223) assay, suspended cells; conditions: phosphorylated BTK Y223, Ramos cells with BTK WT
Protocol: (§1) The purpose of this assay was to simply, quickly and directly detect the level of endogenous BTK phosphorylation in cells.
The steps for handling suspended cells were as follows: • 1) Ramos cells with BTK WT (2.5 k/well), BTK C481S (2.5 k/well), or BTK T474I (2.5 k/well) were plated in a 96-well plate, respectively. A compound of different concentration gradients was added using Tecan D300e, and the plate was incubated at 37 °C and 5% CO2 for 2 hours. • 2) 8.33 µL of 20 mM Na3VO4 was added to bring the final concentration to 5 mM, and the plate was incubated at 37 °C and 5% CO2 for 3 h. • 3) During the incubation, the following reagents were prepared: • 4x added lysis buffer: 24 vol 4x lysis buffer + 1 vol 25x blocking reagent. • p-BTK (Y223) cryptate-antibody and p-BTK (Y223) d2-antibody working solutions: 1 volume of each cryopreserved antibody (stored at - 20 °C) was added to 38 times the volume of assay buffer (stored at 4 °C), and mixed well. • 4) After the incubation was completed, 11.1 µL of 4x added lysis buffer was directly added. The plate was shaken at 800 rpm at room temperature for 30 min. • 5) The lysate was mixed well and 16 µL of it was transferred to a 384-well plate. 1 × added lysis buffer was used as a blank control. • 6) 4 µL of pre-mixed working solutions of the two antibodies (cryptate Ab:d2 Ab = 1:1) was added, and the plate was sealed. • 7) The plate was incubated at room temperature overnight. • 8) The plate was read at 665nm and 620nm using Biotek cytation3.0 microplate reader, and the ratio of 665/620nm of each well was calculated. Data analysis: IC50 was calculated using GraphPad Prism 7.0 software.
(§2) The IC50 (half-maximal phosphorylation inhibitory concentration) of the phosphorylated BTK Y223 of the compound was obtained using the following nonlinear fitting formula: Y = Bottom + (Top−Bottom)/(1+10^(∧)((LogIC50−X)*HillSlope)) [formula] • X: Log value of the compound concentration • Y: Inhibition rate (% inhibition) • Top: Maximum response • Bottom: Baseline response • HillSlope: Slope of the curve
(§3) The formula for calculating cell phosphorylation inhibition rate (inhibition rate %) was: Inhibition rate% = 1−(eachconcentrationwell-blankwell)/(positivecontrolwell−blankwell) [formula]

NIH/3T3 BTK WT cells = assay: Phosphor-BTK(Y223) assay, adherent cells; conditions: read-out: NIH/3T3 BTK-WT pBTK
Protocol: as §1
(§4) The steps for handling adherent cells were as follows: • 1) NIH/3T3 BTK WT cells (7.5 k/well) and NIH/3T3 BTK C481S cells (10 k/well) were plated in a 96-well plate, respectively, and cultured at 37 °C and 5% CO2 overnight. • 2) A 3-fold final concentration gradient dilution of a compound was prepared, and 50 µL of it was taken and added to 100 µL of cell culture. 0.5% DMSO was used as a positive control for cell growth. • 3) The plate was incubated at 37 °C and 5% CO2 for 0.5 h. • 4) Na3VO4 at a final concentration of 1mM was added, and the plate was incubated at 37 °C and 5% CO2 for 2 hours. • 5) During the incubation, the following reagents were prepared: • 1x added lysis buffer: 3 vol ddH2O + 1 vol 4x lysis buffer + 100x blocking reagent. • p-BTK (Y223) cryptate-antibody and p-BTK (Y223) d2-antibody working solutions: 1 volume of each cryopreserved antibody (stored at - 20 °C) was added to 19 times the volume of assay buffer (stored at 4 °C). • 6) After the incubation was completed, the medium was removed and 50 µL of 1x added lysis buffer was added. The plate was centrifuged at 500 rpm at room temperature for 30 min. • 7) The lysate was mixed well and 16 µL of it was transferred to a 384-well plate. 1 × added lysis buffer was used as a blank control. • 8) 4 µL of pre-mixed working solutions of the two antibodies (cryptate Ab:d2 Ab = 1:1) was added, and the plate was sealed. • 9) The plate was incubated at room temperature overnight. 10) The plate was read at 665nm and 620nm using Biotek cytation3.0 microplate reader, and the ratio of 665/620nm of each well was calculated.
as §2, §3

NIH/3T3 BTK C481S cells = assay: Phosphor-BTK(Y223) assay, adherent cells; conditions: read-out: NIH/3T3 BTK-C481S pBTK
Protocol: as §1, §4, §2, §3

[1] = Mus musculus, NIH3T3, phosphorylated BTK Y223, NIH/3T3 BTK WT cells
[2] = Mus musculus, NIH3T3, phosphorylated BTK Y223, NIH/3T3 BTK C481S cells

| Compound | IC50 (Ramos cells with BTK WT; Homo sapiens, Ramos) | IC50 (Ramos cells with BTK WT) | IC50 (NIH/3T3 BTK WT cells; [1]) | IC50 (NIH/3T3 BTK C481S cells; [2]) | IC50 (NIH/3T3 BTK WT cells; phosphorylated BTK Y223, NIH/3T3 BTK WT cells) | IC50 (NIH/3T3 BTK C481S cells; phosphorylated BTK Y223, NIH/3T3 BTK C481S cells) |
| --- | --- | --- | --- | --- | --- | --- |
| COc1ccc(F)cc1C(=O)NCc1ccc(-c2ncc(-c3ccc(F)cn3)c3[nH]nc(N)c23)c(C)c1 [Example 83, N-(4-(3-amino-7-(5-fluoropyridin-2-yl)-1H-pyrazolo[4,3-c]pyridin-4-yl)-3-methylbenzyl)-5-fluoro-2-methoxybenzamide] | > 50 nM |  | 10 to 50 nM | > 50 nM |  |  |
| COc1ccc(F)cc1C(=O)NCc1ccc(-c2nc(-c3ccccc3C)cc3[nH]nc(N)c23)cc1 [Example 87, N-(4-(3-amino-6-(o-tolyl)-1H-pyrazolo[4,3-c]pyridin-4-yl)benzyl)-5-fluoro-2-methoxybenzamide] | > 50 nM |  | > 50 nM | > 50 nM |  |  |
| COc1ccc(F)cc1C(=O)NCc1ccc(-c2nc(-c3ccccc3Cl)cc3[nH]nc(N)c23)cc1 [Example 88, N-(4-(3-amino-6-(2-chlorophenyl)-1H-pyrazolo[4,3-c]pyridin-4-yl)benzyl)-5-fluoro-2-methoxybenzamide] | 5 to 10 nM |  | 10 to 50 nM | > 50 nM |  |  |
| COc1ccc(F)cc1C(=O)NCc1ccc(-c2nc(-c3c(Cl)cccc3Cl)cc3[nH]nc(N)c23)cc1 [Example 89, N-(4-(3-amino-6-(2,6-dichlorophenyl)-1H-pyrazolo[4,3-c]pyridin-4-yl)benzyl)-5-fluoro-2-methoxybenzamide] | 10 to 50 nM |  | 10 to 50 nM | > 50 nM |  |  |
| COc1ccc(F)cc1C(=O)NCc1ccc(-c2nc(-c3ccc(C(=O)O)cc3)cc3[nH]nc(N)c23)cc1 [Example 90, 4-(3-amino-4-(4-((5-fluoro-2-methoxybenzoylamino)methyl)phenyl)-1H-pyrazolo[4,3-c]pyridin-6-yl)benzoic acid] | > 50 nM |  | > 50 nM | > 50 nM |  |  |
| Nc1n[nH]c2cc(C3CC[S+]([O-])CC3)nc(-c3ccc(CNC(=O)c4cc(F)ccc4O)cc3)c12 (stereo not drawn) [Example 92, N-(4-(3-amino-6-(1-oxidotetrahydro-2H-thiopyran-4-yl)-1H-pyrazolo[4,3-c]pyridin-4-yl)benzyl)-5-fluoro-2-hydroxybenzamide] | 10 to 50 nM |  | > 50 nM | > 50 nM |  |  |
| COc1ccc(F)cc1C(=O)NCc1ccc(-c2nc(C3CCS(=O)(=O)CC3)cc3[nH]nc(N)c23)cc1 [Example 93, N-(4-(3-amino-6-(1,1-dioxidotetrahydro-2H-thiopyran-4-yl)-1H-pyrazolo[4,3-c]pyridin-4-yl)benzyl)-5-fluoro-2-methoxybenzamide] | > 50 nM |  | > 50 nM | > 50 nM |  |  |
| N-(4-(3-amino-7-(1,7-naphthyridin-2-yl)-1H-pyrazolo[4,3-c]pyridin-4-yl)benzyl)-5-fluoro-2-methoxybenzamide [Example 49] |  | > 50 nM |  |  | > 50 nM | > 50 nM |

Further lines, with some results ahead:

| IC50 (Ramos cells with BTK WT; Homo sapiens, Ramos) | IC50 (Ramos cells with BTK WT) | Compound | IC50 (NIH/3T3 BTK WT cells; [1]) | IC50 (NIH/3T3 BTK C481S cells; [2]) | IC50 (NIH/3T3 BTK WT cells; phosphorylated BTK Y223, NIH/3T3 BTK WT cells) | IC50 (NIH/3T3 BTK C481S cells; phosphorylated BTK Y223, NIH/3T3 BTK C481S cells) |
| --- | --- | --- | --- | --- | --- | --- |
| > 50 nM |  | COc1ccc(F)cc1C(=O)NCc1ccc(-c2nc(Cl)cc3[nH]nc(N)c23)cc1 [Example 94, N-(4-(3-amino-6-chloro-1H-pyrazolo[4,3-c]pyridin-4-yl)benzyl)-5-fluoro-2-methoxybenzamide] | > 50 nM | > 50 nM |  |  |
| 5 to 10 nM |  | COc1ccc(F)cc1C(=O)NCc1ccc(-c2nc(C3CCCN(C(=O)Nc4ccccc4)C3)cc3[nH]nc(N)c23)cc1 (stereo not drawn) [Example 95, 3-(3-amino-4-(4-((5-fluoro-2-methoxybenzoylamino)methyl)phenyl)-1H-pyrazolo[4,3-c]pyridin-6-yl)-N-phenylpiperidine-1-carboxamide] | > 50 nM | > 50 nM |  |  |
| 5 to 10 nM |  | COc1ccc(F)cc1C(=O)NCc1ccc(-c2nc(C3CCN(C(=O)Nc4ccccc4)CC3)cc3[nH]nc(N)c23)cc1 [Example 97, 4-(3-amino-4-(4-((5-fluoro-2-methoxvbenzoylamino)methyl)phenyl)-1H-pyrazolo[4,3-c]pyridin-6-yl)-N-phenylpiperidine-1-carboxamide] | > 50 nM | > 50 nM |  |  |
| > 50 nM |  | COc1ccc(F)cc1C(=O)NCc1ccc(-c2ncc(-c3cnn4ccncc34)c3[nH]nc(N)c23)cc1 [Example 109, N-(4-(3-amino-7-(pyrazolo[1,5-a]pyrazin-3-yl)-1H-pyrazolo[4,3-c]pyridin-4-yl)benzyl)-5-fluoro-2-methoxybenzamide] | > 50 nM | > 50 nM |  |  |
| > 50 nM |  | COc1ccc(F)cc1C(=O)NCc1ccc(-c2ncc(-c3cnc4cccnn34)c3[nH]nc(N)c23)cc1 [Example 110, N-(4-(3-amino-7-(imidazo[1,2-b]pyridazin-3-yl)-1H-pyrazolo[4,3-c]pyridin-4-yl)benzyl)-5-fluoro-2-methoxybenzamide] | > 50 nM | > 50 nM |  |  |
| > 50 nM |  | COc1ccc(F)cc1C(=O)NCc1ccc(-c2ncc(-c3ccnc4ccnn34)c3[nH]nc(N)c23)cc1 [Example 111, N-(4-(3-amino-7-(pyrazolo[1,5-a]pyrimidin-7-yl)-1H-pyrazolo[4,3-c]pyridin-4-yl)benzyl)-5-fluoro-2-methoxybenzamide] | > 50 nM | > 50 nM |  |  |
| ≤ 5 nM |  | COc1ccc(F)cc1C(=O)NCc1ccc(-c2ncc(-c3ncn4ccccc34)c3[nH]nc(N)c23)cc1 [Example 113, N-(4-(3-amino-7-(imidazo[1,5-a]pyridin-1-yl)-1H-pyrazolo[4,3-c]pyridin-4-yl)benzyl)-5-fluoro-2-methoxybenzamide] | ≤ 5 nM | ≤ 5 nM |  |  |
| > 50 nM |  | COc1ccc(F)cc1C(=O)NCc1ccc(-c2nccc3[nH]nc(N)c23)cc1 [Example 116, N-(4-(3-amino-1H-pyrazolo[4,3-c]pyridin-4-yl)benzyl)-5-fluoro-2-methoxvbenzamide] | > 50 nM | > 50 nM |  |  |
